The values below are quoted from earlier work in patent US6034286A, “Processes for producing saturated alcohols” (Union Carbide Chemicals & Plastics Technology Corporation, priority 1997, dated 2000).

The structures appear in SMILES notation.

One may read the pKa as the negative logarithm of the acid dissociation constant. The term pKb denotes −log10 of the Kb, conventionally taken in molar units.

For series [1] the following is noted: Table II, promoter; approximate values.
For series [2] the following is noted: Table I, organophosphorus ligand.

Consider `N#CCC#N` [CNCH2 CN], for which the pKa in series [1] was 11. Take `c1ccc(P(c2ccccc2)c2ccccc2)cc1` [Triphenylphosphine]: in series [2], the pKb was 2.74.
